Laboratory results reported in patent EP0524718A1, “Polyurethane hydrogel compositions for iontophoretic drug delivery” (GENSIA PHARMACEUTICALS, INC., priority 1991, dated 1993).

Assay: Drug stability in hydrogel matrix electrode pads (isocratic HPLC assay)
Assay type: physicochemical
Conditions: in Hypol Hydrogel matrix, room temperature and 4°C, after six months
Procedure: Stability of Arbutamine in electrode pads using the hydrogel matrix prepared from Hypol Hydrogel prepolymer was studied using the 3M Red Dot™ Electrode Construction. […] The matrix incorporating the drug was placed in the 3M Red Dot electrode (after removing the gel supplied with the electrode). The electrode was secured in an aluminum pouch with or without a nitrogen flush (as noted). Drug stability studies were carried out at room temperature and 4°C.

Which drug degradation does the source give for `Cl.Oc1ccc(CCCCNCC(O)c2ccc(O)c(O)c2)cc1` (stereo not shown) [Arbutamine, 1-(3,4-dihydroxyphenyl)-2-(4-(4-hydroxyphenyl)butylamino)ethanol hydrochloride] here?
The drug degradation was “no significant drug degradation”.
